Series [1] concerns Bacillus subtilis ATCC 6633. Briefly: Antibacterial MIC. The following applies: for MIC: Bacillus subtilis, ATCC6633, read-out: MIC Bacillus subtilis ATCC 6633. It counts as cell-based.
Series [2] relates to Staphylococcus aureus MSSA ATCC 29213. Kind of series: Antibacterial MIC. In kind it is cell-based. Particulars: for MIC: Staphylococcus aureus, read-out: MIC Staphylococcus aureus MSSA ATCC 29213.
Series [3] has as its system S. aureus MRSA ATCC 33591. Briefly: Antibacterial MIC. It counts as cell-based, Staphylococcus aureus. The following applies: for MIC: Staphylococcus aureus, read-out: MIC S. aureus MRSA ATCC 33591.
Series [4] concerns Staphylococcus epidermidis ATCC 35984 biofilm. Briefly: Antibacterial MIC. It counts as cell-based.
Series [5] has as its system Enterococcus faecalis ATCC 29212. Briefly: Antibacterial MIC. It counts as cell-based. The following applies: for MIC: Enterococcus faecalis, ATCC29212, read-out: MIC Enterococcus faecalis ATCC 29212.
A further series deals with E. faecalis 15376 VanA. Briefly: Antibacterial MIC. It counts as cell-based, Enterococcus faecalis. The following applies: for MIC: Enterococcus faecalis, 15376VANA, read-out: MIC E. faecalis 15376 VanA.
Series [6] deals with E. faecalis ATCC 51299 VanB. Kind of series: Antibacterial MIC. It counts as cell-based, Enterococcus faecalis. The following applies: for MIC: Enterococcus faecalis, ATCC51299, read-out: MIC E. faecalis ATCC 51299 VanB.
Series [7] relates to influenza A/H1N1 A/Ned/378/05. Briefly: microbe, parasite or virus in culture. In kind it is cell-based, influenza A virus.
Series [8] deals with influenza A/H3N2 A/Victoria/361/11. Kind of series: microbe, parasite or virus in culture. It counts as cell-based, influenza A virus.
Series [9] relates to influenza B virus B/Ned/537/05. Briefly: CPE reduction assay for influenza virus in MDCK cells, influenza B. The following applies: MDCK cells. It counts as cell-based. As to the method: The CPE reduction assay for influenza virus was described in full detail in previous publications.41 The virus strains were: A/PR/8/34 (A/H1 N1); A/Virginia/ATCC3/2009 (A/H1 N1pdm); A/HK/7/87 (A/H3 N2); B/Ned/537/05; and B/HK/5/72. On day 0, Madin‐Darby canine kidney (MDCK) cells in 96‐well plates were infected with influenza virus at a multiplicity of infection (MOI) of 0.0004 plaque forming units (PFU) per cell. After three days incubation at 35 °C, virus‐induced CPE and compound cytotoxicity were scored by microscopy, after which the data were confirmed by formazan‐based MTS cell viability assay (CellTiter 96® AQueous One Solution Cell Proliferation Assay from Promega). The antiviral effect was expressed as the compound concentration producing 50 % inhibition of the virus‐induced CPE (EC50). Compound cytotoxicity was expressed as the compound concentration causing minimal changes in cell morphology (MCC), and 50 % cytotoxic concentration (CC50) based on MTS assay.42

The subject of series [10] is panel of Gram-positive bacteria. It counts as cell-based.
Another series has as its system HeLa cells. Particulars: human.
For series [11], the system named is influenza A and B viruses. In kind it is cell-based, influenza virus.
Series [12] concerns HEL human embryonic lung fibroblast cells.
In a further series the test system is Vero cells. Particulars: African green monkey.

Converted amounts (≈) assume the structure as drawn. Where two headings read alike, the source gives them in different places.

Take `CN[C@H](CC(C)C)C(=O)N[C@H]1C(=O)N[C@@H](CC(N)=O)C(=O)N[C@H]2C(=O)N[C@H]3C(=O)N[C@H](C(=O)N[C@H](C(=O)O)c4cc(O)cc(O)c4-c4cc3ccc4O)[C@H](O)c3ccc(c(Cl)c3)Oc3cc2cc(c3O[C@@H]2O[C@H](CO)[C@@H](O)[C@H](O)[C@H]2O[C@H]2C[C@](C)(N)[C@H](O)[C@H](C)O2)Oc2ccc(cc2Cl)[C@H]1O` [VAN, vancomycin]: the minimal inhibitory concentration (MIC) in series [1] turned out to be 0.5 µg/mL (≈ 0.345 µM); in series [2], 0.5 µg/mL (≈ 0.345 µM); in series [3] it was 0.5 µg/mL (≈ 0.345 µM); in series [5] it was 1 µg/mL (≈ 0.69 µM); in the series with E. faecalis 15376 VanA it was 256 µg/mL (≈ 177 µM); in [6], 128 µg/mL (≈ 88.3 µM). In addition, the “MIC Staphylococcus epidermidis ATCC 35984 biofilm” value in series [4] came to 2 µg/mL (≈ 1.38 µM).

As to teicoplanin [reference compound], the EC50 in [7] (read-out: Antiviral EC50 A/H1N1 CPE) was over 100 µM; in series [7] (read-out: Antiviral EC50 A/H1N1 MTS), over 100 µM; in [8] (read-out: Antiviral EC50 A/H3N2 CPE) it was over 100 µM; in series [8] (read-out: Antiviral EC50 A/H3N2 MTS), over 100 µM; in series [9] (B/Ned/537/05, MTS assay, read-out: Antiviral EC50 Influenza B MTS), over 100 µM; in series [9] (B/Ned/537/05, visual CPE scoring, read-out: Antiviral EC50 Influenza B CPE) it was over 100 µM. For the same compound, the “MIC Bacillus subtilis ATCC 6633” value in series [1] amounted to 0.5 µg/mL. In addition, the “MIC Staphylococcus aureus MSSA ATCC 29213” value in series [2] (methicillin-sensitive) is 0.5 µg/mL. Further, in series [3] (methicillin-resistant), the “MIC S. aureus MRSA ATCC 33591” value is 0.5 µg/mL. The “MIC Staphylococcus epidermidis ATCC 35984 biofilm” value in series [4] was found to be 2 µg/mL. For the same compound, the “MIC Enterococcus faecalis ATCC 29212” value in series [5] was determined as 2 µg/mL. Further, the “MIC E. faecalis 15376 VanA” value against E. faecalis 15376 VanA (vanA gene positive) worked out at 256 µg/mL. Moreover, the “MIC E. faecalis ATCC 51299 VanB” value in series [6] (vanB gene positive) was determined as 4 µg/mL. Further, the CC50 with MDCK cells was over 100 µM. The “Cytotoxicity MCC (minimum cytotoxic concentration)” value with MDCK cells was over 100 µM.

On to `CC(C)C[C@H](C(=O)N[C@H]1C(=O)N[C@@H](CC(N)=O)C(=O)N[C@H]2C(=O)N[C@H]3C(=O)N[C@H](C(=O)N[C@H](C(=O)O)c4cc(O)cc(O)c4-c4cc3ccc4O)[C@H](O)c3ccc(c(Cl)c3)Oc3cc2cc(c3O)Oc2ccc(cc2Cl)[C@H]1O)n1cc(COCCOCCOCCOCCOCCCC(F)(F)C(F)(F)C(F)(F)C(F)(F)C(F)(F)C(F)(F)C(F)(F)C(F)(F)F)nn1` [Compound 13], for which the MIC in [1] came to 16 µg/mL (≈ 8.66 µM); in series [2], 8 µg/mL (≈ 4.33 µM); in series [3] it was 8 µg/mL (≈ 4.33 µM); in [5], 4 µg/mL (≈ 2.16 µM); in the series on E. faecalis 15376 VanA, 256 µg/mL (≈ 139 µM); in series [6], 32 µg/mL (≈ 17.3 µM). In addition, the “MIC Staphylococcus epidermidis ATCC 35984 biofilm” value in series [4] was 16 µg/mL (≈ 8.66 µM). Besides, the “Antibacterial activity (in words)” value in [10] was “moderate activity”. In the series with MDCK cells, the “Cytotoxicity in MDCK cells (in words)” value was “highly cytotoxic”. Also, the half-maximal cytotoxic concentration (CC50) with MDCK cells (dog) is 0.8 µM; in the series on HeLa cells, over 100 µM. In the series with MDCK cells (dog), the “Cytotoxicity MCC (minimum cytotoxic concentration)” value stood at 0.8 µM. For the same compound, in the series with HeLa cells, the “Cytotoxicity MCC” value was at least 100.

`CC(=O)NC1C(OC2c3ccc(c(Cl)c3)Oc3cc4cc(c3O)Oc3ccc(cc3Cl)CC3NC(=O)C(n5cc(COCCOCCOCCOCCOCCCC(F)(F)C(F)(F)C(F)(F)C(F)(F)F)nn5)c5ccc(O)c(c5)Oc5cc(O)cc(c5)C(NC3=O)C(=O)NC4C(=O)NC3C(=O)NC2C(=O)NC(C(=O)O)c2cc(O)cc(O)c2-c2cc3ccc2O)OC(CO)C(O)C1O` (centres unmarked) [Compound 16]: the MIC in series [1] turned out to be 2 µg/mL (≈ 1.04 µM); in [2], 0.5 µg/mL (≈ 0.26 µM); in [3], 0.5 µg/mL (≈ 0.26 µM); in [5], 1 µg/mL (≈ 0.521 µM); with E. faecalis 15376 VanA it was 2 µg/mL (≈ 1.04 µM); in series [6], 1 µg/mL (≈ 0.521 µM). The “MIC Staphylococcus epidermidis ATCC 35984 biofilm” value in series [4] was determined as 0.5 µg/mL (≈ 0.26 µM). The “Activity against influenza strains (in words)” value in [11] was “robust activity”. The CC50 in the series on MDCK cells (dog) is 97 µM; in [12], over 100 µM; in the series on HeLa cells, over 100 µM; with Vero cells it was over 100 µM. Besides, the “Cytotoxicity MCC (minimum cytotoxic concentration)” value with MDCK cells (dog) worked out at 100 µM. Moreover, the “Cytotoxicity MCC” value with HeLa cells was over 100.

For the compound `CC(=O)N[C@H]1[C@H](O[C@@H]2c3ccc(c(Cl)c3)Oc3cc4cc(c3O)Oc3ccc(cc3Cl)C[C@H]3NC(=O)[C@H](N=[N+]=[N-])c5ccc(O)c(c5)Oc5cc(O)cc(c5)[C@H](NC3=O)C(=O)N[C@H]4C(=O)N[C@H]3C(=O)N[C@@H]2C(=O)N[C@H](C(=O)O)c2cc(O)cc(O)c2-c2cc3ccc2O)O[C@H](CO)[C@@H](O)[C@@H]1O` [Compound 14], in the series with MDCK cells (dog), the cytotoxic concentration (CC50) is over 100 µM and the “Cytotoxicity MCC (minimum cytotoxic concentration)” value is over 100 µM.

Take `CC(=O)NC1C(OC2c3ccc(c(Cl)c3)Oc3cc4cc(c3O)Oc3ccc(cc3Cl)CC3NC(=O)C(n5cc(COCCOCCCC(F)(F)C(F)(F)C(F)(F)C(F)(F)C(F)(F)C(F)(F)C(F)(F)C(F)(F)F)nn5)c5ccc(O)c(c5)Oc5cc(O)cc(c5)C(NC3=O)C(=O)NC4C(=O)NC3C(=O)NC2C(=O)NC(C(=O)O)c2cc(O)cc(O)c2-c2cc3ccc2O)OC(CO)C(O)C1O` (centres unmarked) [Compound 17]: the MIC in [1] was 128 µg/mL (≈ 64.4 µM); in [2], 16 µg/mL (≈ 8.05 µM); in series [3], 16 µg/mL (≈ 8.05 µM); in series [5] it was 256 µg/mL (≈ 129 µM); with E. faecalis 15376 VanA it was 256 µg/mL (≈ 129 µM); in [6], 256 µg/mL (≈ 129 µM). For the same compound, the “MIC Staphylococcus epidermidis ATCC 35984 biofilm” value in series [4] turned out to be 16 µg/mL (≈ 8.05 µM). In series [11], the “Activity against influenza strains (in words)” value is on record as “robust activity”. Further, the CC50 in the series with MDCK cells (dog) is 44 µM; in series [12] it was over 100 µM; with HeLa cells it was over 100 µM; in the series on Vero cells, over 100 µM. Also, in the series with MDCK cells (dog), the “Cytotoxicity MCC (minimum cytotoxic concentration)” value turned out to be 100 µM. Besides, the “Cytotoxicity MCC” value in the series on HeLa cells is over 100.

Turning to `CC(=O)NC1C(OC2c3ccc(c(Cl)c3)Oc3cc4cc(c3O)Oc3ccc(cc3Cl)CC3NC(=O)C(n5cc(COCCOCCCC(F)(F)C(F)(F)C(F)(F)C(F)(F)F)nn5)c5ccc(O)c(c5)Oc5cc(O)cc(c5)C(NC3=O)C(=O)NC4C(=O)NC3C(=O)NC2C(=O)NC(C(=O)O)c2cc(O)cc(O)c2-c2cc3ccc2O)OC(CO)C(O)C1O` (centres unmarked) [Compound 15], the MIC in series [1] amounted to 0.5 µg/mL (≈ 0.28 µM); in [2], 0.5 µg/mL (≈ 0.28 µM); in [3], 0.5 µg/mL (≈ 0.28 µM); in series [5] it was 0.5 µg/mL (≈ 0.28 µM); in the series with E. faecalis 15376 VanA, 1 µg/mL (≈ 0.559 µM); in series [6], 4 µg/mL (≈ 2.24 µM). In addition, in [4], the “MIC Staphylococcus epidermidis ATCC 35984 biofilm” value is 0.5 µg/mL (≈ 0.28 µM). Moreover, the “Activity against influenza strains (in words)” value in series [11] is “robust activity”. Also, the CC50 in the series with MDCK cells (dog) was over 100 µM; in series [12], over 100 µM; in the series with HeLa cells, 43 µM; with Vero cells it was over 100 µM. Further, the “Cytotoxicity MCC (minimum cytotoxic concentration)” value in the series with MDCK cells (dog) came to 100 µM. Also, in the series with Vero cells, the “Cytotoxicity MCC” value is over 100.

`CC(=O)NC1C(OC2c3ccc(c(Cl)c3)Oc3cc4cc(c3O)Oc3ccc(cc3Cl)CC3NC(=O)C(n5cc(COCCOCCOCCOCCOCCCC(F)(F)C(F)(F)C(F)(F)C(F)(F)C(F)(F)C(F)(F)C(F)(F)C(F)(F)F)nn5)c5ccc(O)c(c5)Oc5cc(O)cc(c5)C(NC3=O)C(=O)NC4C(=O)NC3C(=O)NC2C(=O)NC(C(=O)O)c2cc(O)cc(O)c2-c2cc3ccc2O)OC(CO)C(O)C1O` (centres unmarked) [Compound 18]: the minimum inhibitory concentration (MIC) in series [1] stood at 4 µg/mL (≈ 1.89 µM); in series [2], 8 µg/mL (≈ 3.77 µM); in [3], 4 µg/mL (≈ 1.89 µM); in [5], 16 µg/mL (≈ 7.55 µM); in the series with E. faecalis 15376 VanA, 32 µg/mL (≈ 15.1 µM); in [6] it was 32 µg/mL (≈ 15.1 µM). In addition, in series [4], the “MIC Staphylococcus epidermidis ATCC 35984 biofilm” value is 4 µg/mL (≈ 1.89 µM). In series [11], the “Activity against influenza strains (in words)” value was “without antiviral activity”. Also, in the series on MDCK cells, the “Cytotoxicity in MDCK cells (in words)” value is “high cytotoxicity”. Also, the 50% cytotoxic concentration (CC50) with MDCK cells (dog) is 4.2 µM; in series [12], over 100 µM; with HeLa cells, 41 µM; in the series with Vero cells it was over 100 µM.

Source of the values: publication PMC7540527, “Synthesis of Antiviral Perfluoroalkyl Derivatives of Teicoplanin and Vancomycin” (Chemmedchem, 2020).
